In patent publication US20040186081A1, “Naaladase inhibitors for treating opioid tolerance” (Guilford Pharmaceuticals Inc., priority 2003, published 2004):

Each molecule was assayed against NAALADase (Homo sapiens, UniProt Q04609) (assay: In vitro inhibition of NAALADase activity). Conditions: not given.
Type: biochemical

NAALADase, sequence (Q04609 whole entry): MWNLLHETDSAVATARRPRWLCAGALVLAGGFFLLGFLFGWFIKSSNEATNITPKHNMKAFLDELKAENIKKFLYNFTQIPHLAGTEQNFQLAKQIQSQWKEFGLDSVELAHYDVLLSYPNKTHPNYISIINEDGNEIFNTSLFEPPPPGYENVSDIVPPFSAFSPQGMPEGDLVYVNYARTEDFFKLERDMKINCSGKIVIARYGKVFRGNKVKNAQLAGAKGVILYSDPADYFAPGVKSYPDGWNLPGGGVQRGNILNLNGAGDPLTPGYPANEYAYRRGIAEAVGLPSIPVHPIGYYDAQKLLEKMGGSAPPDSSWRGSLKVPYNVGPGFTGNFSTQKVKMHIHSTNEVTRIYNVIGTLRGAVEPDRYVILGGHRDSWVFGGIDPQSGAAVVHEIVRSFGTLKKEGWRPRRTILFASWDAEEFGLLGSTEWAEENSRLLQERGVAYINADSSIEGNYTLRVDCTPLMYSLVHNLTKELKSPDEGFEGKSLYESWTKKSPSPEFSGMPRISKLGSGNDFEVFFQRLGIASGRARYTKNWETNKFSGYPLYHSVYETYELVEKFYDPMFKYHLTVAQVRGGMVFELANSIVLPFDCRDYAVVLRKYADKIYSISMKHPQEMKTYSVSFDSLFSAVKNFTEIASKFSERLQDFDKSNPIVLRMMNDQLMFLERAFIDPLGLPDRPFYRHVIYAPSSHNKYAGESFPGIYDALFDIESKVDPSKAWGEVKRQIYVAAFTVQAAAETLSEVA

| SMILES | Ki [nM] |
| --- | --- |
| O=C(O)c1ccc(CCS)c(C(=O)O)c1 [4-(2-mercaptoethyl)-1,3-benzenedicarboxylic acid] | 116 |
| O=C(O)c1ccc(OCCCSSCCCOc2ccc(C(=O)O)cc2C(=O)O)c(C(=O)O)c1 [4-[3-[[3-(2,4-dicarboxyphenoxy)-propyl]-dithio]propoxy]-1,3-benzenedicarboxylic acid] | 3750 |
| O=C(O)c1ccc(Sc2ccccc2C(=O)O)c(C(=O)O)c1 [4-[(2-carboxyphenyl)thio]-1,3-benzenedicarboxylic acid] | 3980 |
| O=C(O)c1cc(CCS)cc(C(=O)O)c1 [5-(2-mercaptoethyl)-1,3-benzenedicarboxylic acid] | 5100 |
| O=C(O)c1cc(OCCCS)cc(C(=O)O)c1 [5-(3-mercaptopropoxy)-1,3-benzenedicarboxylic acid] | 3300 |
| O=C(O)CNc1cc(C(=O)O)cc(C(=O)O)c1 [5-[(carboxymethyl)amino]-1,3-benzenedicarboxylic acid] | 100000 |
| O=C(O)c1cc(CNCc2ccco2)cc(C(=O)O)c1 [5-[[(2-furanylmethyl)amino]methyl]-1,3-benzenedicarboxylic acid] | 50000 |

Results, then the molecule that gave them:

| Ki [nM] | SMILES |
| --- | --- |
| 1170 | O=C(O)c1ccc(C(=O)c2ccc(Oc3ccc(C(=O)O)c(C(=O)O)c3)cc2)c(C(=O)O)c1 [4-[4-(2,4-dicarboxybenzoyl)phenoxy]-1,2-benzenedicarboxylic acid] |
| 14500 | O=C(O)c1cc(OCCS)cc(C(=O)O)c1 [5-(2-mercaptoethoxy)-1,3-benzenedicarboxylic acid] |
| 12000 | O=C(Cc1cc(C(=O)O)cc(C(=O)O)c1)NO [5-[2-(hydroxyamino)-2-oxoethyl]-1,3-benzenedicarboxylic acid] |
| 1000 | O=C(O)c1cc(C(=O)O)cc(C(=O)NO)c1 [5-[(hydroxyamino)-carbonyl]-1,3-benzenedicarboxylic acid] |

Same assay, conditions: read-out: IC50

| SMILES | IC50 [nM] |
| --- | --- |
| CN(O)C(=O)CSCCCC(Cc1cccc(C(=O)O)c1)C(=O)O (stereo not drawn) [3-{2-Carboxy-5-[(hydroxy-methyl-carbamoyl)-methylsulfanyl]-pentyl}-benzoic acid] | 14900 |
| O=C(O)c1ccccc1-c1cccc(CC(CCCS)C(=O)O)c1 (stereo not drawn) [3′-(2-carboxy-5-mercaptopentyl)-[1,1′-biphenyl]-2-carboxylic acid] | 184 |
| O=C(O)c1cccc(-c2cccc(CC(CCCS)C(=O)O)c2)c1 (stereo not drawn) [3′-(2-carboxy-5-mercaptopentyl)-[1,1′-biphenyl]-3-carboxylic acid] | 1.83 |
| O=C(O)Cc1ccc(OC(CCCS)C(=O)O)cc1 (stereo not drawn) [4-(1-carboxy-4-mercaptobutoxy)-benzeneacetic acid] | 82 |
| O=C(O)c1ccc(OC(CCCS)C(=O)O)cc1 (stereo not drawn) [4-(1-carboxy-4-mercaptobutoxy)-benzoic acid] | 192 |
| O=C(CCCSCc1ccc(-c2cccc(C(=O)O)c2)c(C(=O)O)c1)NO [4-(3-Hydroxycarbamoyl-propylsulfanylmethyl)-biphenyl-2,3′-dicarboxylic acid] | 10800 |
| N#Cc1ccc(COc2ccc(C(=O)NO)cc2)cc1 [4-(4-Cyano-benzyloxy)-N-hydroxy-benzamide] | 14200 |
| O=C(NO)c1ccc(Oc2ccc(F)cc2)c([N+](=O)[O-])c1 [4-(4-Fluoro-phenoxy)-N-hydroxy-3-nitro-benzamide] | ≥ 100000 |
| O=C(O)c1cccc(-c2ccc(CS)cc2C(=O)O)c1 [4-(mercaptomethyl)-[1,1′-biphenyl]-2,3′-dicarboxylic acid] | 76 |
| O=C(O)c1ccc(Br)c(CS)c1 [4-bromo-3-(mercaptomethyl)-benzoic acid] | 3200 |
| O=C(O)c1ccc(CC(CCCS)C(=O)O)cc1 (stereo not drawn) [4-carboxy-alpha-(3-mercaptopropyl)-benzenepropanoic acid] | 59 |
| O=C(O)c1cc(CC(CCCS)C(=O)O)cc(C(=O)O)c1 (stereo not drawn) [5-(2-carboxy-5-mercaptopentyl)-1,3-benzenedicarboxylic acid] | 2.55 |
| O=C(O)c1cc(CS)ccc1OCCc1ccccc1 [5-(mercaptomethyl)-2-(2-phenylethoxy)-benzoic acid] | 188 |
| CCOC(=O)c1cc(C(=O)O)cc(C(=O)NO)c1 [5-Hydroxycarbamoyl-isophthalic acid monoethyl ester] | 29000 |
| O=C(O)c1cccc(COc2ccc(CCS)c(C(=O)O)c2)c1 [5-[(3-carboxyphenyl)methoxy]-2-(2-mercaptoethyl)-benzoic acid] | 84.5 |

The next lines start with the values.

| IC50 [nM] | SMILES |
| --- | --- |
| 16000 | CCC(SCCC(Cc1cc(C(=O)O)cc(C(C)(C)C)c1)C(=O)O)C(=O)NO (stereo not drawn) [3-tert-Butyl-5-[2-carboxy-4-(1-hydroxycarbamoyl-propylsulfanyl)-butyl]-benzoic acid] |
| 23500 | O=C(CSCCCC(Cc1cccc(-c2cccc(C(=O)O)c2)c1)C(=O)O)NO (stereo not drawn) [3′-(2-Carboxy-5-hydroxycarbamoylmethylsulfanyl-pentyl)-biphenyl-3-carboxylic acid] |
| 18 | O=C(O)c1cc(CC(CCCS)C(=O)O)ccc1-c1ccccc1 (stereo not drawn) [4-(2-carboxy-5-mercaptopentyl)-[1,1′-biphenyl]-2-carboxylic acid] |
| 3590 | O=C(O)c1ccccc1Oc1ccc(CC(CCCS)C(=O)O)cc1 (stereo not drawn) [4-(2-carboxyphenoxy)-alpha-(3-mercaptopropyl)-benzenepropanoic acid] |
| 316 | N#Cc1ccccc1-c1ccc(CC(CCCS)C(=O)O)cc1 (stereo not drawn) [4-(2-cyanophenyl)-alpha-(3-mercaptopropyl)-benzenepropanoic acid] |
| 2200 | CC(=O)Nc1ccc(CC(CCCS)C(=O)O)cc1 (stereo not drawn) [4-(acetylamino)-alpha-(3-mercaptopropyl)-benzenepropanoic acid] |
| 809 | O=C(O)Cc1ccc(CC(CCCS)C(=O)O)cc1 (stereo not drawn) [4-(carboxymethyl)-alpha-(3-mercaptopropyl)-benzenepropanoic acid] |
| 660 | O=C(O)c1c(F)c(F)c(CC(CCCS)C(=O)O)c(F)c1F (stereo not drawn) [4-carboxy-2,3,5,6-tetrafluoro-alpha-(3-mercaptopropyl)-benzenepropanoic acid] |
| 316 | O=C(O)c1ccc(CC(CCCS)C(=O)O)c2ccccc12 (stereo not drawn) [4-carboxy-alpha-(3-mercaptopropyl)-1-naphthalenepropanoic acid] |
| 2140 | O=C(O)C(CCCS)Cc1ccc(O)cc1 (stereo not drawn) [4-hydroxy-alpha-(3-mercaptopropyl)-benzenepropanoic acid] |
| 1690 | O=C(CSCCCC(Cc1cc(C(=O)O)cc(-c2ccccc2)c1)C(=O)O)NO (stereo not drawn) [5-(2-Carboxy-5-hydroxycarbamoylmethyl-sulfanylpentyl)-biphenyl-3-carboxylic acid] |
| 14800 | O=C(COc1cc(C(=O)O)cc(C(=O)O)c1)NO [5-Hydroxycarbamoylmethoxy-isophthalic acid] |
| 71.5 | O=C(O)c1ccc(COc2ccc(CCS)c(C(=O)O)c2)cc1 [5-[(4-carboxyphenyl)methoxy]-2-(2-mercaptoethyl)-benzoic acid] |
| 2.09 | O=C(O)c1ccc(Cl)c(CC(CCCS)C(=O)O)c1 (stereo not drawn) [5-carboxy-2-chloro-alpha-(3-mercaptopropyl)-benzenepropanoic acid] |
| 6.33 | O=C(O)c1ccc(F)c(CC(CCCS)C(=O)O)c1 (stereo not drawn) [5-carboxy-2-fluoro-alpha-(3-mercaptopropyl)-benzenepropanoic acid] |
| 26 | COc1ccc(C(=O)O)cc1CC(CCCS)C(=O)O (stereo not drawn) [5-carboxy-alpha-(3-mercaptopropyl)-2-methoxy-benzenepropanoic acid] |
